According to US20120196918A1, “PREVENTING ISLET INFLAMMATION AND DYSFUNCTION AND MAINTAINING PROPER GLUCOSE LEVELS BY CONTROLLING eIF5A AND ITS HYPUSINATION” (priority 2009, published 2012):

What was measured:
[1] = tested on: STZ-treated C57BL/6J mice; assay: Multiple low-dose streptozotocin (STZ) diabetes model in C57BL/6J mice; format: in vivo, mouse
Protocol: (§1) To test the role of eIF5A in cytokine-mediated islet dysfunction, efforts were made to identify a mouse model of islet inflammation. The multiple low dose streptozotocin (STZ) model, in which mice are subjected to five daily intraperitoneal doses (at 55 mg/kg body weight) of STZ, is considered to provoke local islet inflammation and cytokine release, in part through the recruitment of CD11c+ dendritic cells that release pro-inflammatory cytokines in the area of STZ-induced cellular destruction (27 and 28).
C57BL/6J mice were injected intraperitoneally with either stabilized siRNA against eIF5A (si-eIF5A) or control siRNA (si-Control) daily for three days, then subjected to the multiple low-dose STZ protocol (see schematic in FIG. 1a). […] The effect of administering si-eIF5A on islet viability following STZ treatment was determined by performing immunohistochemical analysis of the pancreata of mice. […] To quantify the differences in islet mass between STZ-treated and untreated animals, morphometry of insulin-stained pancreatic sections was performed.
Based on the observed data, if hypusination of eIF5A by DHS is required for cytokine responsiveness in islets, then inhibition of DHS in vivo should protect against low dose STZ diabetes. To test this, C57BL/6J mice were treated with GC7 or vehicle and then subjected to low dose STZ injections. GC7 was delivered in one of two different ways: either by daily bolus intraperitoneal injections (4 mg/kg/day) or by continuous subcutaneous delivery (40 μg/kg/h) using implanted osmotic pumps. A protocol similar to that shown in FIG. 1A was employed in these studies, with GC7 injections or pump implants starting 3 days prior to STZ injections.
Small interfering RNA (siRNA) studies: Stabilized siRNAs for intraperitoneal injections were custom synthesized by Dharmacon using the siSTABLE® modification. Groups of 10 week-old C57BL/6J male mice (from Jackson Labs) received daily intraperitoneal injections of 1.6 mg/kg siRNA prepared in 0.9% saline or vehicle alone (0.9% saline) for 3 days. For in vitro studies, islets from each group of injected mice were harvested on the fourth day and pooled prior to analysis. Injections with each siRNA were performed on at least 3 different occasions. siRNA sequences were as follows: siControl, 5′-[…]-3′; si-eIF5A, 5′-[…]-3′. For siRNA studies in the rat β cell-derived line INS-1 (832/13), cells were transfected with a SMART Pool® siRNA against rat eIF5A1 (Dharmacon, #L-083855-01) or non-targeting control siRNA #1 (Dharmacon) using DharmaFECT® transfection reagent (Dharmacon).
Immunostaining and morphometric assessment of β cell mass: Immunostaining of pancreatic sections proceeded as described previously (72). For assessment of islet cell death in pancreatic sections, the technique of terminal deoxynucleotidyl transferase dUTP nick end labeling (TUNEL) was performed using biotinylated 16-dUTP (Roche) and Texas Red Neutravidin (Invitrogen). Digital images of each islet at 40× magnification were acquired using an Axio-Observer D1 microscope (Zeiss) inverted fluorescent microscope equipped with a high-resolution color camera. TUNEL-positive/insulin-positive nuclei were counted manually by an observer blinded to sample identity, and data were re-coded as the average number of TUNEL-positive nuclei per islet. β cell mass was calculated as described previously (73), but with some modifications. Briefly, pancreata from 3 mice per treatment group were rapidly dissected and weighed, fixed in 4% paraformaldehyde, paraffin-embedded, and longitudinally sectioned. Three sections/pancreas (approx. 75 μm apart) were subsequently immunostained for insulin and counterstained with hematoxylin as described (74), and digital images of each section at 10× magnification were acquired on an Axio-Observer Z1 microscope (Zeiss) fitted with an AxioCam high resolution color camera. […]

iNOS [2] = conditions: cited from earlier work
Nos2 mRNA = assay: Nuclear export of Nos2 mRNA, subcellular fractionation of cytokine-treated INS-1 cells; format: cell-based, rat
Protocol: Subcellular fractionation studies: Nuclear and cytoplasmic fractions of 1×10^6 cytokine-treated INS-1 cells exposed to vehicle, leptomycin B (20 ng/ml), or GC7 (100 μM) were prepared using the method of Dignam, et al. (76). Total RNA was isolated from nuclear and cytoplasmic fractions using the RNeasy® RNA isolation kit (Qiagen).
Quantitative RT-PCR: Five micrograms of total RNA from islets or INS-1 cells were reverse-transcribed as detailed previously (77). cDNA was subjected to quantitative PCR using SYBR Green-based technology and published primers for mouse Ins1/2 pre-mRNA (78) and QuantiTech® primers (Qiagen) for all other mouse genes. The Assay on Demand® kit (Applied Biosystems) was used to amplify rat genes in INS-1 cells and human genes in human islets. Thermal cycling was performed according to manufacturer's instructions, and the identity of each PCR product was verified by automated sequencing. All samples were corrected for total input RNA as quantitated by an Experion® (Bio-Rad) bioanalyzer. All data represent the average of triplicate determinations from at least 3 independent experiments.

eIF5A = eIF5A nuclear-to-cytoplasmic translocation in INS-1 cells (immunofluorescence); format: cell-based, rat; conditions: pretreatment, then cytokines 4 h
Protocol: Given the striking retention of Nos2 transcripts in the absence of eIF5A-Hyp, it was of interest to determine whether the intracellular distribution of eIF5A accounts for its effect on Nos2 nucleo-cytoplasmic shuttling. Immunofluorescence of eIF5A in fixed INS-1 cells, were thus performed. […] Upon treatment of cells with cytokines, there was a shift in the eIF5A distribution pattern from the nucleus to the cytoplasm.
Cytokine and inhibitor incubation studies: For cytokine incubation assays, a 1000× cocktail of cytokines containing 5 μg/ml IL1β, 10 μg/ml TNFα, and 100 μg/ml IFNγ (all prepared in 0.1% BSA in Tris-buffered saline) was applied at 1× final concentration to groups of 50 islets or 1×10^6 INS-1 (832/13) cells for a total of 4 h at 37° C. For GC7 incubation studies, GC7 was prepared at a stock concentration of 125 mM in 10 mM acetic acid and applied to cultures of 50 islets or 1×10^6 INS-1 cells to obtain the final concentrations indicted in the figures. […]
Immunofluorescence: Immunofluorescence of INS-1 cells proceeded essentially as described previously (71), using primary antibodies to eIF5A1 and secondary anti-mouse Alexa-488-conjugated antibody (Invitrogen), or by direct visualization of GFP fusion proteins at 488 nm. […] Quantitation of cytoplasic-to-nuclear ratios of eIF5A staining was performed using Axio-Vision Software, v. […]

iNOS [3] = assay: Cytokine-induced iNOS protein in INS-1 cells (immunoblot); format: cell-based, rat; conditions: increasing inhibitor concentrations overnight, cytokines 4 h
Text: eIF5A1 and eIF5A2 are the only proteins known to contain the unique amino acid hypusine at position 50. Hypusine is formed as a posttranslational modification of residue Lys50 in a reaction requiring spermidine and catalyzed by the sequential actions of the enzymes deoxyhypusine synthase (DHS) and deoxyhypusine hydroxylase (DOHH) (Chen, K Y, and Liu, A Y. Biochemistry and function of hypusine formation on eukaryotic initiation factor 5A. Biol Signals. 1997; 6(3):105-109). […] To further investigate the mechanism of eIF5A-regulated translation of Nos2, studies were performed following overnight incubation of cells with mimosine (an inhibitor of DOHH) and GC7 (an inhibitor of DHS). […] Similar data using GC7 were obtained in primary mouse islets (data not shown) and in human islets (FIGS. 5F and 5G).
Because GC7 is known to be inactivated by the action amine oxidases, which are abundant in serum, typical studies with GC7 in the literature have used aminoguanidine to inhibit amine oxidases (16). […] To rule out possible adverse effects of GC7 on cell viability, quantitative 2 color fluorescence analysis of live (calcein-AM-positive) and dead (ethidium homodimer-1-positive) cells were performed using fluorescence cytometry.
Cytokine and inhibitor incubation studies: For cytokine incubation assays, a 1000× cocktail of cytokines containing 5 μg/ml IL1β, 10 μg/ml TNFα, and 100 μg/ml IFNγ (all prepared in 0.1% BSA in Tris-buffered saline) was applied at 1× final concentration to groups of 50 islets or 1×10^6 INS-1 (832/13) cells for a total of 4 h at 37° C. For GC7 incubation studies, GC7 was prepared at a stock concentration of 125 mM in 10 mM acetic acid and applied to cultures of 50 islets or 1×10^6 INS-1 cells to obtain the final concentrations indicted in the figures. Where needed, GC7 was protected from amine oxidases in serum by addition of 1 mM aminoguanidine (Sigma). Cells were incubated with GC7 overnight (˜16 h) at 37° C. prior to analysis. Cells were exposed to Leptomycin B (Cayman Chemicals) for 3 hours; leptomycin B was prepared at a 1000× stock concentration of 20 μg/ml in ethanol.
Immunoblot and nitrite and iNOS assays: Whole cell extracts were resolved by electrophoresis on a 4-20% SDS-polyacrylamide gel, followed by immunoblot using anti-eIF5A1, anti-eIF5A2, anti-iNOS, anti-GFP, or anti-actin primary antibodies and fluorophore-labeled secondary antibodies. Immunoblots were visualized using the Li-Cor® Odyssey® system (Li-Cor Biosciences) and quantitated by scanning fluorometry using Odyssey Imaging v. […] Nitrite was quantitated by measuring nitric oxide-derived nitrite from INS-1 cell culture medium using the Griess reagent (Promega) according to the manufacturer's recommendations. iNOS activity was measured using a commercially available kit (Cayman).

[4] = tested on: STZ-treated NOD/Scid-(IL-2Rγ-null) mice; assay: Multiple low-dose STZ model in immune-deficient NOD/Scid-(IL-2Rγ-null) mice; format: in vivo, mouse; conditions: multiple low-dose STZ (data not shown for si-eIF5A)
Protocol: as §1
As noted, low-dose STZ-induced islet dysfunction involves at least two mechanisms: an inflammatory mechanism that is dependent upon cytokine release from immune cells and a direct toxic mechanism on the islet itself. […] Next, islets from 3 C57BL/6J mice per group 24 h after the initial STZ treatment were isolated and pooled and their iNOS content determined by immunoblot. […]
Studies in vivo: Daily STZ injections to groups of 10 week-old C57BL/6J and NOD/Scid-(IL-2Rγ-null) mice proceeded as described previously (30) at a dose of 55 mg STZ per kg mouse weight for 5 days. […] Serum was analyzed using a Luminex system (Millipore) and a mouse cytokine/chemokines Panel 1 mutliplex kit (Millipore).

5′-AAAGUCGACCUUCAGUAAGGA-3′ (stabilizing modifications, further chemistry not given here) [si-Control, control siRNA, stabilized]
average fasting blood glucose ([1]; siRNA 1.6 mg/kg i.p. daily for 3 days, then multiple low-dose STZ, day 7): 159 mg/dL | reduction of β cell mass compared to non-STZ-treated controls ([1]; siRNA i.p., multiple low-dose STZ, morphometry of insulin-stained sections): 2.8 fold

N=C(N)NN [aminoguanidine]
inhibition of iNOS catalytic activity (literature) (iNOS [2]): effective inhibitor of iNOS catalytic activity

CCC(=C/[C@H](C)C/C=C/C(C)=C/[C@@H](C)C(=O)[C@@H](C)[C@H](O)[C@@H](C)C/C(C)=C/C(=O)O)/C=C/[C@@H]1OC(=O)C=C[C@@H]1C [leptomycin B]
Nos2 export blocked (Nos2 mRNA; cytokine-treated INS-1 cells): about 50% | distribution of mRNAs between nuclear and cytoplasmic fractions (Nos2 mRNA; cytokine-treated, GC7 100 μM overnight or leptomycin B 20 ng/ml 3 h): relative retention of Nos2, Actb, and Nfkb1 (but not Gapdh) in the nuclear fraction | cytokine-induced translocation of eIF5A (eIF5A): failed to induce the nuclear to cytoplasmic translocation of eIF5A

NC(Cn1ccc(=O)c(O)c1)C(=O)O (stereo not shown) [mimosine]
iNOS protein after cytokines (iNOS [3]): dose-dependent attenuation

IL-1Ra: interleukin-1 receptor antagonist, the IL-1Ra anakinra
protection against glucose intolerance [4]: did not protect against glucose intolerance | glucose intolerance in IPGTT with IL-1Ra ([1]; concurrent IL-1Ra treatment, multiple low-dose STZ): attenuated glucose intolerance only in immune-competent mice | serum IL-6 levels ([1]; concurrent treatment with STZ): dramatic drop in serum IL-6 levels
